According to publication PMC7345905, “Microbial Metabolite Urolithin B Inhibits Recombinant Human Monoamine Oxidase A Enzyme” (Metabolites, 2020):
“And” between values parts separate entries of the source, which are not always exact repeats. Equal values may be shown once.

Columns and labels:
[1] = molecular target: T1, human recombinant MAO-A (Homo sapiens, UniProt P21397); assay: MAO-A inhibition kinetics (variable substrate, Lineweaver–Burk plot); assay type: biochemical; design: Michaelis-Menten best-fit Vmax of MAO-A / Michaelis-Menten best-fit Vmax of MAO-A, Average: unit not given here; conditions: for MAO-A assay signal (luminescence) / Transformed (reciprocal of MAO-A assay signal) / Michaelis-Menten best-fit Vmax of MAO-A: N=1-3
T1 construct: purchased Sigma-Aldrich
T1 sequence (P21397 1-527): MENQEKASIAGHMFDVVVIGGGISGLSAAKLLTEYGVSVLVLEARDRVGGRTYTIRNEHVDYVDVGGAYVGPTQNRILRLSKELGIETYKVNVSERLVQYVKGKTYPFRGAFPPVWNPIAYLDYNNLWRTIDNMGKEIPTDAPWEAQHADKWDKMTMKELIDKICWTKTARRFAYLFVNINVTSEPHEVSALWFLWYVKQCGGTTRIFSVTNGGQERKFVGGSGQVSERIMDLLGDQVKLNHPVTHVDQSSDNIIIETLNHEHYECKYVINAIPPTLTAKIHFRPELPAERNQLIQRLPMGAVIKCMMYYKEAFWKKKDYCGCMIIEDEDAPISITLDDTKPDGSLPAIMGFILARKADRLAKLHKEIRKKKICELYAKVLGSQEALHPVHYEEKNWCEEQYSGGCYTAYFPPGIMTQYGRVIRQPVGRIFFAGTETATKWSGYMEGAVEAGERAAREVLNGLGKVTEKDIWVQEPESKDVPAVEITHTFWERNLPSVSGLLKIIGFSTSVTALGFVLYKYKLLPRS
Description: (§1) MAO inhibition assays were performed using a MAO-Glo™ Assay kit (Promega) according to the manufacturer’s instructions. Briefly, 1 µg of human recombinant MAO-A and MAO-B enzyme isoforms were incubated with 160 and 16 µM of MAO substrates, respectively. […] The enzyme reaction was quenched by the addition of a luciferin detection reagent. […] An equal volume of dimethyl sulfoxide (0.1%) was added to the enzyme assay as a control. After 1 h of incubation, the luminescence was measured with a multimode microplate reader (Synergy HT, BioTek, Winooski, VT, USA) to determine the MAO enzyme activities. Initially, the inhibition potential of all the test compounds was evaluated at a concentration of 100 μM. The control reaction (with no inhibitor) with vehicle (DMSO 0.1%) was set at 100% activity. To determine IC50 of the test compounds, the dose dependent enzyme assays were performed. We used range of 0.1 to 50 μM concentrations for MAO-A and 0.1 to 200 μM concentrations of test compounds for the MAO-B enzyme activities. The type of enzyme inhibition was determined using variable concentrations of MAO-A substrate (10–360 µM) and MAO-B substrate (2–64 µM) for the respective enzyme assay. […] A Lineweaver–Burk double reciprocal plot was generated, and the mode of inhibition was determined by visual examination of the plot. The slope of the reciprocal plots was plotted against the inhibitor concentrations and determined the x-axis intercept that represented the inhibitor constant, Ki value.
All experiments were performed in triplicates and data are presented as mean ± standard error of the mean (SEM). The raw data are provided in Supplementary Data, Table S1. Enzyme kinetic data were analyzed using the Lineweaver–Burk plot. Statistical analysis was performed by Student’s t-test using GraphPad Prism Ver. 7.0 (GraphPad Prism Software Inc., San Diego, CA, USA).

[2] = molecular target: T2, human recombinant MAO-B (Homo sapiens, UniProt P27338); assay: MAO-Glo MAO-B inhibition assay; assay type: biochemical; conditions: N=1-3, listed as UroA
T2 construct: purchased Sigma-Aldrich
T2 sequence (P27338 1-520): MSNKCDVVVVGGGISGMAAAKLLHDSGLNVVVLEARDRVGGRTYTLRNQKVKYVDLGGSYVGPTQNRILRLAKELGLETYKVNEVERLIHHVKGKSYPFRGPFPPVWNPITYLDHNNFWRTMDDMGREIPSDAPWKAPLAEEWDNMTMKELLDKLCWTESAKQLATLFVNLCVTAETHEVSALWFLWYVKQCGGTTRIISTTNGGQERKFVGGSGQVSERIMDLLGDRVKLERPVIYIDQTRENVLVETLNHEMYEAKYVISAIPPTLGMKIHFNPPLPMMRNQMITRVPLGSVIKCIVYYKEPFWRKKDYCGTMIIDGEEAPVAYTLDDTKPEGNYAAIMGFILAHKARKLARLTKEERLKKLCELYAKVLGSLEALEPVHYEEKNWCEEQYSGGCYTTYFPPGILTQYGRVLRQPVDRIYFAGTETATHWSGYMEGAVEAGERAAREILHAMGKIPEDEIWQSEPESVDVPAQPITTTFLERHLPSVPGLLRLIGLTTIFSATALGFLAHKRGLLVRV
Description: as §1

[3] = UroA 3 µM, MAO-A substrate 10 uM
[4] = UroA 3 µM, MAO-A substrate 20 uM
[5] = UroA 3 µM, MAO-A substrate 40 uM
[6] = UroA 3 µM, MAO-A substrate 80 uM
[7] = UroA 3 µM, MAO-A substrate 160 uM
[8] = UroA 3 µM, MAO-A substrate 320 uM
[9] = UroA 12 µM, MAO-A substrate 10 uM
[10] = UroA 12 µM, MAO-A substrate 20 uM
[11] = UroA 12 µM, MAO-A substrate 40 uM
[12] = UroA 12 µM, MAO-A substrate 80 uM
[13] = UroA 12 µM, MAO-A substrate 160 uM

In the case of `O=c1oc2cc(O)ccc2c2ccc(O)cc12` [UA, urolithin-A], the “mode of inhibition of MAO-A” value ([1]; Lineweaver–Burk plot) is reported as “mixed mode of inhibition”, the “MAO-A assay signal (luminescence), Average” value [1, 3] is reported as 962.333 and the “MAO-A assay signal (luminescence)” value [1, 3] is reported as 1018 and 920 and 949. The “MAO-A assay signal (luminescence), Average” value [1, 4] was 1760.33, the “MAO-A assay signal (luminescence)” value [1, 4] was 1739 and 1707 and 1835 and the “MAO-A assay signal (luminescence), Average” value [1, 5] was 3218.67. For the same compound, the “MAO-A assay signal (luminescence)” value [1, 5] was 3261 and 3188 and 3207, the “MAO-A assay signal (luminescence), Average” value [1, 6] was 6181.33 and the “MAO-A assay signal (luminescence)” value [1, 6] was 6231 and 6107 and 6206. For the same compound, the “MAO-A assay signal (luminescence), Average” value [1, 7] was 11480.7, the “MAO-A assay signal (luminescence)” value [1, 7] was 11583 and 11575 and 11284 and the “MAO-A assay signal (luminescence), Average” value [1, 8] was 20098. For the same compound, the “MAO-A assay signal (luminescence)” value [1, 8] was 20331 and 20247 and 19716, the “Transformed (reciprocal of MAO-A assay signal), Average” value (“Transformed … Average” for short) ([1]; UroA 3 µM, [1/S] 0.003125) was 4.976e-5 and the “Transformed (reciprocal of MAO-A assay signal)” value ([1]; UroA 3 µM, [1/S] 0.003125) was 4.9186e-5 and 4.939e-5 and 5.072e-5. The “Transformed … Average” value ([1]; UroA 3 µM, [1/S] 0.00625) was 8.7103e-5, the “Transformed (reciprocal of MAO-A assay signal)” value ([1]; UroA 3 µM, [1/S] 0.00625) was 8.633e-5 and 8.639e-5 and 8.862e-5 and the “Transformed … Average” value ([1]; UroA 3 µM, [1/S] 0.0125) was 0.0001618. The “Transformed (reciprocal of MAO-A assay signal)” value ([1]; UroA 3 µM, [1/S] 0.0125) was 0.0001605 and 0.0001637 and 0.0001611, the “Transformed … Average” value ([1]; UroA 3 µM, [1/S] 0.025) was 0.0003107 and the “Transformed (reciprocal of MAO-A assay signal)” value ([1]; UroA 3 µM, [1/S] 0.025) was 0.0003067 and 0.0003137 and 0.0003118. The “Transformed … Average” value ([1]; UroA 3 µM, [1/S] 0.05) was 0.0005681, the “Transformed (reciprocal of MAO-A assay signal)” value ([1]; UroA 3 µM, [1/S] 0.05) was 0.000575 and 0.0005858 and 0.000545 and the “Transformed … Average” value ([1]; UroA 3 µM, [1/S] 0.1) was 0.001039. For the same compound, the “Transformed (reciprocal of MAO-A assay signal)” value ([1]; UroA 3 µM, [1/S] 0.1) was 0.0009823 and 0.001087 and 0.001054, the “MAO-A assay signal (luminescence), Average” value [1, 9] was 978.667 and the “MAO-A assay signal (luminescence)” value [1, 9] was 993 and 1030 and 913. The “MAO-A assay signal (luminescence), Average” value [1, 10] was 1695.33, the “MAO-A assay signal (luminescence)” value [1, 10] was 1731 and 1673 and 1682 and the “MAO-A assay signal (luminescence), Average” value [1, 11] was 3058.33. The “MAO-A assay signal (luminescence)” value [1, 11] was 3191 and 2983 and 3001, the “MAO-A assay signal (luminescence), Average” value [1, 12] was 5849.33 and the “MAO-A assay signal (luminescence)” value [1, 12] was 5814 and 5864 and 5870. The “MAO-A assay signal (luminescence), Average” value [1, 13] was 10871, the “MAO-A assay signal (luminescence)” value [1, 13] was 10945 and 10745 and 10923 and the “MAO-A assay signal (luminescence), Average” value ([1]; UroA 12 µM, MAO-A substrate 320 uM) was 12941.7. For the same compound, the “Transformed … Average” value ([1]; UroA 12 µM, [1/S] 0.003125) was 7.727e-5, the “Transformed (reciprocal of MAO-A assay signal)” value ([1]; UroA 12 µM, [1/S] 0.003125) was 8.026e-5 and 7.7238e-5 and 7.452e-5 and the “Transformed … Average” value ([1]; UroA 12 µM, [1/S] 0.00625) was 9.199e-5. For the same compound, the “Transformed (reciprocal of MAO-A assay signal)” value ([1]; UroA 12 µM, [1/S] 0.00625) was 9.137e-5 and 9.307e-5 and 9.155e-5, the “Transformed … Average” value ([1]; UroA 12 µM, [1/S] 0.0125) was 0.000171 and the “Transformed (reciprocal of MAO-A assay signal)” value ([1]; UroA 12 µM, [1/S] 0.0125) was 0.000172 and 0.0001705 and 0.0001704. For the same compound, the “Transformed … Average” value ([1]; UroA 12 µM, [1/S] 0.025) was 0.000327, the “Transformed (reciprocal of MAO-A assay signal)” value ([1]; UroA 12 µM, [1/S] 0.025) was 0.0003134 and 0.0003352 and 0.0003332 and the “Transformed … Average” value ([1]; UroA 12 µM, [1/S] 0.05) was 0.0005899. For the same compound, the “Transformed (reciprocal of MAO-A assay signal)” value ([1]; UroA 12 µM, [1/S] 0.05) was 0.0005777 and 0.0005977 and 0.0005945, the “Transformed … Average” value ([1]; UroA 12 µM, [1/S] 0.1) was 0.001022 and the “Transformed (reciprocal of MAO-A assay signal)” value ([1]; UroA 12 µM, [1/S] 0.1) was 0.001007 and 0.0009709 and 0.001095. For the same compound, the “Michaelis-Menten best-fit Vmax of MAO-A, Average” value ([1]; in presence of UroA 3 uM) was 79114.7, the “Michaelis-Menten best-fit Vmax of MAO-A” value ([1]; in presence of UroA 3 uM) was 80970 and 83529 and 72845 and the “Michaelis-Menten best-fit Vmax of MAO-A, Average” value ([1]; in presence of UroA 12 uM) was 65883.7. For the same compound, the “Michaelis-Menten best-fit Vmax of MAO-A” value ([1]; in presence of UroA 12 uM) was 75205 and 61786 and 60660, the Ki ([1]; x-axis intercept of slopes of Lineweaver–Burk plots vs inhibitor concentration) was 10 µM and the “MAO-B enzyme assay, Percent of control” value ([2]; 0.1 µM) was 100.912% of control and 101.373% of control and 99.9795% of control. For the same compound, the “MAO-B enzyme assay, Percent of control” value ([2]; 1 µM) was 93.9146% of control and 96.8343% of control and 95.7816% of control, the “MAO-B enzyme assay, Percent of control” value ([2]; 10 µM) was 91.0665% of control and 92.3573% of control and 93.7097% of control and the “MAO-B enzyme assay, Percent of control” value ([2]; 25 µM) was 94.1092% of control and 90.4928% of control. For the same compound, the “MAO-B enzyme assay, Percent of control” value ([2]; 50 µM) was 81.2724% of control and 83.4341% of control and 89.5093% of control, the “MAO-B enzyme assay, Percent of control” value ([2]; 100 µM (Figure 1C), 100 µM) was 76.7559% of control and 78.826% of control and 78.8568% of control and the “MAO-B enzyme assay, Percent of control” value ([2]; 100 µM) was 71.1402% of control and 80.3709% of control and 83.4443% of control. The “MAO-B enzyme assay, Percent of control” value ([2]; 200 µM) was 40.5081% of control and 42.2805% of control and 48.6733% of control.
